From PubChem BioAssay (NCI)
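These data come from cells grown in 96-well plates and exposed to compound for 48 hours at five concentrations. TGI is the concentration that stops growth completely.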

Tests used:
Test in all cases: NCI tumour cell line growth inhibition, 48 h
786-0 renal = tested on: 786-0 renal
A498 renal = tested on: A498 renal
A549 NSCLC = tested on: A549 NSCLC
ACHN renal = tested on: ACHN renal
CAKI-1 renal = tested on: CAKI-1 renal
CCRF-CEM leukemia = tested on: CCRF-CEM leukemia
COLO 205 colon = tested on: COLO 205 colon
DLD-1 colon = tested on: DLD-1 colon
DMS 273 small cell lung = tested on: DMS 273 small cell lung
HCC-2998 colon = tested on: HCC-2998 colon
HCT-116 colon = tested on: HCT-116 colon
HCT-15 colon = tested on: HCT-15 colon
HL-60(TB) leukemia = tested on: HL-60(TB) leukemia
HOP-18 NSCLC = tested on: HOP-18 NSCLC
HOP-62 NSCLC = tested on: HOP-62 NSCLC
HOP-92 NSCLC = tested on: HOP-92 NSCLC
HT29 colon = tested on: HT29 colon
IGROV1 ovarian = tested on: IGROV1 ovarian
K-562 leukemia = tested on: K-562 leukemia
KM12 colon = tested on: KM12 colon
KM20L2 colon = tested on: KM20L2 colon
LOX IMVI melanoma = tested on: LOX IMVI melanoma
LXFL 529 NSCLC = tested on: LXFL 529 NSCLC
M14 melanoma = tested on: M14 melanoma
M19-MEL melanoma = tested on: M19-MEL melanoma
MALME-3M melanoma = tested on: MALME-3M melanoma
MOLT-4 leukemia = tested on: MOLT-4 leukemia
NCI-H23 lung = tested on: NCI-H23 lung
NCI-H460 lung = tested on: NCI-H460 lung
NCI-H522 lung = tested on: NCI-H522 lung
OVCAR-3 ovarian = tested on: OVCAR-3 ovarian
OVCAR-4 ovarian = tested on: OVCAR-4 ovarian
OVCAR-5 ovarian = tested on: OVCAR-5 ovarian
OVCAR-8 ovarian = tested on: OVCAR-8 ovarian
RPMI-8226 leukemia = tested on: RPMI-8226 leukemia
RXF 393 renal = tested on: RXF 393 renal
RXF-631 renal = tested on: RXF-631 renal
SF-295 CNS = tested on: SF-295 CNS
SF-539 CNS = tested on: SF-539 CNS
SK-MEL-28 melanoma = tested on: SK-MEL-28 melanoma
SK-MEL-5 melanoma = tested on: SK-MEL-5 melanoma
SN12C renal = tested on: SN12C renal
SNB-19 CNS = tested on: SNB-19 CNS
SNB-78 CNS = tested on: SNB-78 CNS
SR leukemia = tested on: SR leukemia
SW-620 colon = tested on: SW-620 colon
TK-10 renal = tested on: TK-10 renal
U251 CNS = tested on: U251 CNS
UACC-257 melanoma = tested on: UACC-257 melanoma
UACC-62 melanoma = tested on: UACC-62 melanoma
XF 498 CNS = tested on: XF 498 CNS
DMS 114 small cell lung = tested on: DMS 114 small cell lung
EKVX NSCLC = tested on: EKVX NSCLC
NCI-H226 lung = tested on: NCI-H226 lung
SF-268 CNS = tested on: SF-268 CNS
SK-MEL-2 melanoma = tested on: SK-MEL-2 melanoma
SK-OV-3 ovarian = tested on: SK-OV-3 ovarian
UO-31 renal = tested on: UO-31 renal
MCF7 breast = tested on: MCF7 breast
NCI/ADR-RES ovarian = tested on: NCI/ADR-RES ovarian
P388 leukemia = tested on: P388 leukemia
P388/ADR leukemia = tested on: P388/ADR leukemia
SN12K1 renal = tested on: SN12K1 renal
SNB-75 CNS = tested on: SNB-75 CNS

Cc1cn(C2CC(O)C(COC(=O)c3ccccc3)O2)c(=O)[nH]c1=O (stereo unspecified)
TGI (786-0 renal): > 100 µM
TGI (A498 renal): > 100 µM
TGI (A549 NSCLC): > 100 µM
TGI (ACHN renal): > 100 µM
TGI (CAKI-1 renal): > 100 µM
TGI (CCRF-CEM leukemia): > 100 µM
TGI (COLO 205 colon): > 100 µM
TGI (DLD-1 colon): > 100 µM
TGI (DMS 273 small cell lung): > 100 µM
TGI (HCC-2998 colon): > 100 µM
TGI (HCT-116 colon): > 100 µM
TGI (HCT-15 colon): > 100 µM
TGI (HL-60(TB) leukemia): > 100 µM
TGI (HOP-18 NSCLC): > 100 µM
TGI (HOP-62 NSCLC): > 100 µM
TGI (HOP-92 NSCLC): > 100 µM
TGI (HT29 colon): > 100 µM
TGI (IGROV1 ovarian): > 100 µM
TGI (K-562 leukemia): > 100 µM
TGI (KM12 colon): > 100 µM
TGI (KM20L2 colon): > 100 µM
TGI (LOX IMVI melanoma): > 100 µM
TGI (LXFL 529 NSCLC): > 100 µM
TGI (M14 melanoma): > 100 µM
TGI (M19-MEL melanoma): > 100 µM
TGI (MALME-3M melanoma): > 100 µM
TGI (MOLT-4 leukemia): > 100 µM
TGI (NCI-H23 lung): > 100 µM
TGI (NCI-H460 lung): > 100 µM
TGI (NCI-H522 lung): > 100 µM
TGI (OVCAR-3 ovarian): > 100 µM
TGI (OVCAR-4 ovarian): > 100 µM
TGI (OVCAR-5 ovarian): > 100 µM
TGI (OVCAR-8 ovarian): > 100 µM
TGI (RPMI-8226 leukemia): > 100 µM
TGI (RXF 393 renal): > 100 µM
TGI (RXF-631 renal): > 100 µM
TGI (SF-295 CNS): > 100 µM
TGI (SF-539 CNS): > 100 µM
TGI (SK-MEL-28 melanoma): > 100 µM
TGI (SK-MEL-5 melanoma): > 100 µM
TGI (SN12C renal): > 100 µM
TGI (SNB-19 CNS): > 100 µM
TGI (SNB-78 CNS): > 100 µM
TGI (SR leukemia): > 100 µM
TGI (SW-620 colon): > 100 µM
TGI (TK-10 renal): > 100 µM
TGI (U251 CNS): > 100 µM
TGI (UACC-257 melanoma): > 100 µM
TGI (UACC-62 melanoma): > 100 µM
TGI (XF 498 CNS): > 100 µM

Cc1nc(-n2nc(-c3ccccc3)cc2-c2ccccc2)sc1C(=O)/C=C/c1ccc(/C=C/C(=O)c2sc(-n3nc(-c4ccccc4)cc3-c3ccccc3)nc2C)cc1
TGI (786-0 renal): 33.4 µM
TGI (A549 NSCLC): > 100 µM
TGI (ACHN renal): 40.2 µM
TGI (CAKI-1 renal): 51.6 µM
TGI (CCRF-CEM leukemia): 96.7 µM
TGI (COLO 205 colon): 39.1 µM
TGI (DLD-1 colon): 44.8 µM
TGI (DMS 114 small cell lung): > 100 µM
TGI (DMS 273 small cell lung): 44.9 µM
TGI (EKVX NSCLC): > 100 µM
TGI (HCC-2998 colon): 39.3 µM
TGI (HCT-116 colon): 37.4 µM
TGI (HCT-15 colon): > 100 µM
TGI (HL-60(TB) leukemia): > 100 µM
TGI (HOP-62 NSCLC): 54.2 µM
TGI (HT29 colon): 44.8 µM
TGI (IGROV1 ovarian): 28.6 µM
TGI (K-562 leukemia): > 100 µM
TGI (KM12 colon): 35.8 µM
TGI (KM20L2 colon): 36.4 µM
TGI (LOX IMVI melanoma): 40.6 µM
TGI (LXFL 529 NSCLC): 67.3 µM
TGI (M14 melanoma): 36.7 µM
TGI (M19-MEL melanoma): 63 µM
TGI (MALME-3M melanoma): 40.2 µM
TGI (MOLT-4 leukemia): 68.6 µM
TGI (NCI-H226 lung): 71.2 µM
TGI (NCI-H23 lung): 35.3 µM
TGI (NCI-H460 lung): 95.7 µM
TGI (NCI-H522 lung): 34.4 µM
TGI (OVCAR-3 ovarian): 59.3 µM
TGI (OVCAR-4 ovarian): > 100 µM
TGI (OVCAR-5 ovarian): 57.5 µM
TGI (OVCAR-8 ovarian): > 100 µM
TGI (RXF 393 renal): 42.9 µM
TGI (RXF-631 renal): 78.9 µM
TGI (SF-268 CNS): 51.6 µM
TGI (SF-295 CNS): 51.8 µM
TGI (SF-539 CNS): 33.7 µM
TGI (SK-MEL-2 melanoma): 51.8 µM
TGI (SK-MEL-28 melanoma): 41.8 µM
TGI (SK-OV-3 ovarian): > 100 µM
TGI (SN12C renal): 43.5 µM
TGI (SNB-19 CNS): 42 µM
TGI (SNB-78 CNS): 99.8 µM
TGI (SR leukemia): 72.4 µM
TGI (SW-620 colon): > 100 µM
TGI (TK-10 renal): 87.6 µM
TGI (U251 CNS): 34.3 µM
TGI (UACC-257 melanoma): 45.6 µM
TGI (UO-31 renal): 42 µM
TGI (XF 498 CNS): 41.4 µM

COc1ccc2nc3c(C(=O)NCCN(C)C)cccc3cc2c1
TGI (A498 renal): 3.08 µM
TGI (A549 NSCLC): 5.26 µM
TGI (CCRF-CEM leukemia): 8.14 µM
TGI (COLO 205 colon): 3.74 µM
TGI (DMS 114 small cell lung): 4.48 µM
TGI (DMS 273 small cell lung): 6.15 µM
TGI (EKVX NSCLC): 6.25 µM
TGI (HCC-2998 colon): 16.2 µM
TGI (HCT-116 colon): 9.27 µM
TGI (HCT-15 colon): 9.84 µM
TGI (HL-60(TB) leukemia): 4.64 µM
TGI (HOP-18 NSCLC): > 100 µM
TGI (HOP-62 NSCLC): 7.71 µM
TGI (HOP-92 NSCLC): 5.76 µM
TGI (HT29 colon): 6.37 µM
TGI (IGROV1 ovarian): 6.77 µM
TGI (K-562 leukemia): 17.1 µM
TGI (KM12 colon): 13 µM
TGI (KM20L2 colon): 4.36 µM
TGI (LOX IMVI melanoma): 3.59 µM
TGI (MALME-3M melanoma): > 21.4 µM
TGI (MCF7 breast): 7.22 µM
TGI (MOLT-4 leukemia): 8.4 µM
TGI (NCI-H226 lung): 4.14 µM
TGI (NCI-H23 lung): 5.09 µM
TGI (NCI-H460 lung): 3.65 µM
TGI (NCI/ADR-RES ovarian): 4.99 µM
TGI (OVCAR-3 ovarian): > 28.6 µM
TGI (OVCAR-4 ovarian): 8.49 µM
TGI (OVCAR-5 ovarian): 5.9 µM
TGI (OVCAR-8 ovarian): 4.46 µM
TGI (P388 leukemia): 1490 nM
TGI (P388/ADR leukemia): 3.05 µM
TGI (RPMI-8226 leukemia): 6.23 µM
TGI (RXF 393 renal): 5.28 µM
TGI (SF-268 CNS): 12.1 µM
TGI (SF-295 CNS): 6.2 µM
TGI (SF-539 CNS): 7.79 µM
TGI (SK-MEL-2 melanoma): 5.44 µM
TGI (SK-MEL-28 melanoma): 8.79 µM
TGI (SK-MEL-5 melanoma): 3.28 µM
TGI (SK-OV-3 ovarian): 7.3 µM
TGI (SN12C renal): 6.93 µM
TGI (SN12K1 renal): 3.27 µM
TGI (SNB-19 CNS): 7.58 µM
TGI (SNB-75 CNS): 9 µM
TGI (SNB-78 CNS): 18.3 µM
TGI (SW-620 colon): 5.1 µM
TGI (U251 CNS): 14.2 µM
TGI (UACC-257 melanoma): 5.01 µM
TGI (UACC-62 melanoma): 3.33 µM
TGI (UO-31 renal): 3.97 µM
TGI (XF 498 CNS): 4.01 µM
